Test results from ChEMBL document CHEMBL1201862, “PubChem BioAssay data set” (2004).
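Five compound concentrations were applied to cells in 96-well plates for 48 hours; endpoints were derived by simple linear interpolation of the resulting dose-response curve. Here, GI50 denotes the concentration required for 50% inhibition of growth.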 Activity calls are given as the source filed them. Cut-off read from the data, not from the text of the source: active = GI50 up to about 1.1 µM and inactive = higher.

Legend:
Assay in all cases: NCI anticancer screen, dose series, 48 h
RPMI-8226 = tested on: RPMI-8226
SR = tested on: SR
LOX IMVI = tested on: LOX IMVI
Hs-578T = tested on: Hs-578T
HCT-116 = tested on: HCT-116
U-251 = tested on: U-251
PC-3 = tested on: PC-3
CAKI-1 = tested on: CAKI-1
NCI-H460 = tested on: NCI-H460
HT-29 = tested on: HT-29
SW-620 = tested on: SW-620
HOP-62 = tested on: HOP-62
M14 = tested on: M14
OVCAR-8 = tested on: OVCAR-8
TK-10 = tested on: TK-10

Structure (SMILES) | GI50 (RPMI-8226) | GI50 (SR) | GI50 (LOX IMVI) | GI50 (Hs-578T) | GI50 (HCT-116) | GI50 (U-251) | GI50 (PC-3) | GI50 (CAKI-1) | GI50 (NCI-H460) | GI50 (HT-29) | GI50 (SW-620) | GI50 (HOP-62) | GI50 (M14) | GI50 (OVCAR-8) | GI50 (TK-10)
COC(=O)Nc1nc2ccc(S(=O)(=O)SC)cc2[nH]1 | 3.84 µM (inactive) | 3.72 µM (inactive) | 4.78 µM (inactive) | 20.5 µM (inactive) | 4.68 µM (inactive) | 5.51 µM (inactive) | 4.42 µM (inactive) | 4.88 µM (inactive) | 5.2 µM (inactive) | 3.28 µM (inactive) | 3.73 µM (inactive) | 21.1 µM (inactive) | 3.4 µM (inactive) | 5.13 µM (inactive) | 8.09 µM (inactive)
CC(=C(C(N)=O)C(N)=O)C1C=C(c2cccs2)CC(c2ccc(Cl)cc2)=C1O (stereo not given) | 20.4 µM (inactive) | 31 µM (inactive) | 19.8 µM (inactive) | > 100 µM (inactive) | 8.85 µM (inactive) | 35.6 µM (inactive) | 9.55 µM (inactive) | 44.3 µM (inactive) | 69 µM (inactive) | 39.8 µM (inactive) | 82.8 µM (inactive) | > 100 µM (inactive) | 42.5 µM (inactive) | 73.6 µM (inactive) | 45.3 µM (inactive)
O=C1CSC(c2ccccc2O)N1c1ccc2c(c1)Oc1c(Cl)c3c(c(Cl)c1=N2)Oc1cc(N2C(=O)CSC2c2ccccc2O)ccc1N=3 (stereo not given) | 23.7 µM (inactive) | 0.873 µM (active) | 42.1 µM (inactive) | 30.3 µM (inactive) | 30.6 µM (inactive) | 24.9 µM (inactive) | 38.4 µM (inactive) | > 100 µM (inactive) | 43 µM (inactive) | 54.7 µM (inactive) | 27.4 µM (inactive) | 28.6 µM (inactive) | 48.6 µM (inactive) | 29.4 µM (inactive) | 62.5 µM (inactive)
C(=N\c1ccc(-c2cc(-c3ccccc3)nc3ccc4ccccc4c23)cc1)/c1ccccc1 | 15.6 µM (inactive) | 10.2 µM (inactive) | 19.9 µM (inactive) | 5.86 µM (inactive) | 16.6 µM (inactive) | 36.5 µM (inactive) | 13.2 µM (inactive) | 23.3 µM (inactive) | 19.9 µM (inactive) | 7.87 µM (inactive) | 26.2 µM (inactive) | 20.9 µM (inactive) | 18.1 µM (inactive) | 26 µM (inactive) | 22.3 µM (inactive)
COc1ccc(C2=NN(C(=O)c3cccnc3)C(O)(c3cc(F)c(Cl)cc3Cl)C2)cc1OC (stereo not given) | 13.4 µM (inactive) | 7.28 µM (inactive) | 13.9 µM (inactive) | 19.4 µM (inactive) | 14.8 µM (inactive) | 13.8 µM (inactive) | 12.6 µM (inactive) | 24.1 µM (inactive) | 15.2 µM (inactive) | 12.3 µM (inactive) | 17.9 µM (inactive) | 19 µM (inactive) | 15.8 µM (inactive) | 14.5 µM (inactive) | 30.4 µM (inactive)
CC(=O)Oc1ccccc1/C=C/C(=O)/C=C/c1ccccc1OC(C)=O | 0.308 µM (active) | 0.867 µM (active) | 0.64 µM (active) | 3.69 µM (inactive) | 0.239 µM (active) | 1.51 µM (inactive) | 1.65 µM (inactive) | 3.75 µM (inactive) | 2.05 µM (inactive) | 1.94 µM (inactive) | 0.447 µM (active) | 2.44 µM (inactive) | 1.95 µM (inactive) | 1.94 µM (inactive) | 3.39 µM (inactive)
CC(C)(C)c1ccc(OCCOc2ccc(C(C)(C)C)cc2NC=O)c(NC=O)c1 | 2.32 µM (inactive) | 11.7 µM (inactive) | 4.5 µM (inactive) | 12.5 µM (inactive) | 6.43 µM (inactive) | 6.82 µM (inactive) | 8.71 µM (inactive) | 19.4 µM (inactive) | 4.01 µM (inactive) | 3.08 µM (inactive) | 4.39 µM (inactive) | 6.92 µM (inactive) | 5.48 µM (inactive) | 11.8 µM (inactive) | 15.1 µM (inactive)
COC(=O)C1(C)OC(C)=NC1(C(=O)OC)C(=O)OC (stereo not given) | > 100 µM (inactive) | > 100 µM (inactive) | > 100 µM (inactive) | > 100 µM (inactive) | > 100 µM (inactive) | > 100 µM (inactive) | > 100 µM (inactive) | > 100 µM (inactive) | > 100 µM (inactive) | > 100 µM (inactive) | > 100 µM (inactive) | > 100 µM (inactive) | > 100 µM (inactive) | > 100 µM (inactive) | > 100 µM (inactive)
COc1ccc(C(=O)Oc2c(C#N)sc3c2c(=O)n(-c2ccccc2)c(=S)n3-c2ccccc2)cc1 | 25.2 µM (inactive) | < 0.01 µM (active) | 19.5 µM (inactive) | 25.9 µM (inactive) | 18.1 µM (inactive) | 25.8 µM (inactive) | 26.5 µM (inactive) | 22.3 µM (inactive) | 30.5 µM (inactive) | 22.2 µM (inactive) | 32.7 µM (inactive) | 24.7 µM (inactive) | 20.3 µM (inactive) | 24.7 µM (inactive) | 28 µM (inactive)
Cc1ccc(/C=C2\Cc3cccc(C)c3C2=O)c(C(=O)O)c1 | 36.3 µM (inactive) | 90.4 µM (inactive) | 64.4 µM (inactive) | > 100 µM (inactive) | 72.9 µM (inactive) | 57.9 µM (inactive) | 99.5 µM (inactive) | 19.9 µM (inactive) | > 100 µM (inactive) | > 100 µM (inactive) | > 100 µM (inactive) | > 100 µM (inactive) | > 100 µM (inactive) | 97.7 µM (inactive) | > 100 µM (inactive)
CN(NC(=O)c1ccc(Cl)cc1)C1=NCCCCN1 | > 100 µM (inactive) | > 100 µM (inactive) | > 100 µM (inactive) | > 100 µM (inactive) | > 100 µM (inactive) | > 100 µM (inactive) | > 100 µM (inactive) | > 100 µM (inactive) | > 100 µM (inactive) | > 100 µM (inactive) | > 100 µM (inactive) | > 100 µM (inactive) | > 100 µM (inactive) | > 100 µM (inactive) | > 100 µM (inactive)
Cc1ccc(SCC(CF)OC(C)n2cnc3c(O)nc(N)nc32)cc1 (stereo not given) | > 100 µM (inactive) | 98.4 µM (inactive) | > 100 µM (inactive) | > 100 µM (inactive) | > 100 µM (inactive) | > 100 µM (inactive) | > 100 µM (inactive) | > 100 µM (inactive) | > 100 µM (inactive) | > 100 µM (inactive) | > 100 µM (inactive) | > 100 µM (inactive) | > 100 µM (inactive) | > 100 µM (inactive) | > 100 µM (inactive)
COCCOCCOC1=C(Cl)C(=O)c2c(O)ccc(O)c2C1=O | 0.718 µM (active) | 0.399 µM (active) | 1.95 µM (inactive) | 3.11 µM (inactive) | 0.923 µM (active) | 5.16 µM (inactive) | 5.42 µM (inactive) | 1.27 µM (inactive) | 12.9 µM (inactive) | 3.48 µM (inactive) | 0.287 µM (active) | 2.39 µM (inactive) | 1.59 µM (inactive) | 2.21 µM (inactive) | 1.52 µM (inactive)
